Experimental data: patent US20250205342A1, “IRAK DEGRADERS AND USES THEREOF” (Kymera Therapeutics, Inc., priority 2022, published 2025)

Experiments:
IRAK4 [1] = target: T1, IRAK4 (Homo sapiens, UniProt Q9NWZ3); test: IRAK4 degradation in OCI-LY10 (MSD, Meso Scale Discovery); type: cell-based; parameters: endogenous in cells; host or cells: OCI-LY10; conditions: OCI-LY10 cells, 24 h
T1 sequence (Q9NWZ3 1-460): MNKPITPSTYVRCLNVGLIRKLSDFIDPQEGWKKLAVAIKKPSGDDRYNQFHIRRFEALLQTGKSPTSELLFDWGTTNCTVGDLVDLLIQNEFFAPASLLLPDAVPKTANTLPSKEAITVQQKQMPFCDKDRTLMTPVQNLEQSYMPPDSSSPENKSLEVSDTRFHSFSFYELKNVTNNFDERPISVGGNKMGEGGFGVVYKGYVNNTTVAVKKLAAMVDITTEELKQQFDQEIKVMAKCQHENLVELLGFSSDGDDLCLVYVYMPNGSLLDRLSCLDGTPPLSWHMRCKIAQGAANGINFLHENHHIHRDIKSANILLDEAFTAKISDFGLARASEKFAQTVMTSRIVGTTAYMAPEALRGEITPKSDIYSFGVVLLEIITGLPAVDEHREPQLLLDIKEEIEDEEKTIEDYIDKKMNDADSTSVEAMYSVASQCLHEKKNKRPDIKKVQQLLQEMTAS
Protocol: Degradation of IRAK4 in OCI-LY10 was quantitatively measured using Meso Scale Discovery technology. OCI-LY10 cells were seeded in 96-well plates (Corning 3799) with a density of 300,000 cells per well in 100 μL fresh media. Compounds were then added to the assay plates with a final top concentration of 1 to 10 μM in a 1:3 dilution series with total of 8 doses. The assay plates were then incubated for 4 to 24 hours at 37° C. under 5% CO2. The assay plates were then centrifuged for 5 minutes and the cell pellets were treated with 100 μL/well RIPA lysis buffer (Boston BioProducts BP-115D) with proteinase inhibitors. To prepare MSD assay plates (Meso Scale Discovery Catalog number L15XA-3), the plates were coated with 2 ug/mL capture antibody (mouse Anti-IRAK4 antibody [2H9], ab119942) in PBS, at 40 μL/well. The plates were then incubated overnight at […], washed 3 times with 150 μL/well TBST buffer (Cell Signaling Technology, Catalog number 9997S) and blocked with 150 μL/well blocking buffer (Meso Scale Discovery Catalog number R^93BA-4). Cell lysates were then added to MSD assay plates and the plates were incubated at room temperature for 1 hour. The plates were then washed 3 times with 150 μL/well TBST buffer and 25 μL/well primary detection antibody (rabbit Anti-IRAK4 antibody [Y279], from Abcam. Catalog number ab32511, 1 μg/mL). The assay plates were then incubated at room temperature for 1 hour, washed 3 times with 150 μL/well TBST buffer and 25 μL/well secondary detection antibody, SULFO-TAG anti-rabbit antibody were added (anti-rabbit antibody from Meso Scale Discovery, Catalog number R^32AB-1, 1 μg/mL). The assay plates were then incubated at room temperature for 1 hour, washed 3 times with 150 μL/well TBST buffer, and 150 μL/well MSD reading buffer (Meso Scale Discovery catalog number R^92TC-2) was added. The plates were then analyzed by a MSD reader (Meso Scale Discovery, Model Quick Plex SQ 120). The data was then analyzed by software Prism 7.0 from GraphPad and the dose-depended IRAK4 degradation were fit using a three-parameter logistic equation to calculate DC50.
(§1) IRAK4 MSD degradation in OCI-LY10 results at 4 and 24 hrs and hPBMC at 20 hrs for compounds of the invention are presented in Table 3. The letter codes for IRAK4 DC50 include: A (<0.1 μM), B (0.1-1.0 μM), C(>1.0-10.0 μM), D (>10.0 μM or not determined).

IRAK4 [2] = target: T1, IRAK4; test: hPBMC IRAK4 degradation flow assay (monocytes); type: cell-based; parameters: endogenous in cells; host or cells: human PBMCs (monocytes, CD14 positive gate); conditions: CD14 positive monocytes, 20 h, read-out: hPBMC monocyte DC50 at 20 h
Protocol: In the hPBMC IRAK4 degradation flow assay, frozen PBMCs were thawed into RPMI with 10% FBS and allowed to recover. On the same day as thawed, PBMCs were plated in 96 well plate, 90 μL per well. Compound plates were prepared and a 10 point, 5-fold dilution was performed with a final DMSO concentration of 0.1%. Compound 10 μL per well was added, sealed and incubated at 37° C., 5% CO2 for 20 hours (for 4 hour treatment, compounds were prepared and added the following day). Following the treatment incubation period (day 1), 1.6% PFA was added to PBMC plate and placed on plate shaker for 30 seconds and incubated for 10 mins at room temperature. Cells were spun down and washed two times with PBS/0.5% BSA, aspirated to pellet and placed into −80° C. freezer until further processing for flow. On the flow run day, PBMC plates were thawed and samples were transferred to PCR plates. The pre-perm staining cocktail (CD3 Ax488/CD8 BUV805/CD14 BUV395/CD16/56 BV711/CD19 BV785) was added to samples and incubated for 30 minutes at room temperature. Samples were washed two times and permeabilized with methanol for 10 minutes at 4° C. Samples were washed two times and the post-perm staining cocktail (CD4 PE/IRAK4 Ax647 BD #560315) was added and incubated for 30 minutes at room temperature. Samples were washed two times with PBS/BSA and run on a BD LSRFortessa. Mononuclear cells are gated by SSCH/FSCH and single cells. Monocytes are then gated through CD14 positive gate and lymphocytes are gated through CD14 negative gate. To determine absolute DC50 and max degradation values, MFI values were normalized to DMSO max and 20 hour 10 µM min control. Twenty hour dose curves were calculated using a 4 parameter logistic regression curve fit, no constraints (Top doses were removed if hook effects were observed and the bottom was constrained to 0).
as §1

Row | SMILES | DC50 (IRAK4 [1]) | DC50 (IRAK4 [2])
1 | COc1cc2nn([C@H]3CC[C@H](CNCCCCc4cncc(N5CCC[C@H](C(=O)Nc6ccc(=O)n(CC(=O)O)c6)C5)c4)CC3)cc2cc1NC(=O)c1cccc(C(F)(F)F)n1 [Compound I-25] | > 10 µM | > 10 µM
2 | COc1cc2nn([C@H]3CC[C@H](CNCCc4cncc(N5CCC[C@H](C(=O)Nc6ccc(=O)n(CC(=O)O)c6)C5)c4)CC3)cc2cc1NC(=O)c1cccc(C(F)(F)F)n1 [Compound I-26] | > 10 µM | > 10 µM
3 | O=C(O)Cn1cc(NC(=O)[C@H]2CCCN(c3cncc(CCCCCCNC[C@H]4CC[C@H](n5cc(NC(=O)c6cnn7ccc(N8C[C@H]9C[C@@H]8CO9)nc67)c(C(F)F)n5)CC4)c3)C2)ccc1=O [Compound I-27] | > 10 µM | > 10 µM
4 | O=C(O)Cn1cc(NC(=O)[C@H]2CCCN(c3cncc(CCNC[C@H]4CC[C@H](n5cc(NC(=O)c6cnn7ccc(N8C[C@H]9C[C@@H]8CO9)nc67)c(C(F)F)n5)CC4)c3)C2)ccc1=O [Compound I-28] | > 10 µM | > 10 µM
5 | CCOC(=O)Cn1cc(NC(=O)[C@H]2CCCN(c3cncc(CCCCNC[C@H]4CC[C@H](n5cc6cc(NC(=O)c7cccc(C(F)(F)F)n7)c(OC)cc6n5)CC4)c3)C2)ccc1=O [Compound I-31] | > 10 µM | > 10 µM
6 | CCOC(=O)Cn1cc(NC(=O)[C@H]2CCCN(c3cncc(CCCCCCNC[C@H]4CC[C@H](n5cc(NC(=O)c6cnn7ccc(N8C[C@H]9C[C@@H]8CO9)nc67)c(C(F)F)n5)CC4)c3)C2)ccc1=O [Compound I-32] | > 10 µM | > 10 µM
7 | CCOC(=O)Cn1cc(NC(=O)[C@H]2CCCN(c3cncc(OCCNC[C@H]4CC[C@H](n5cc6cc(NC(=O)c7cccc(C(F)(F)F)n7)c(OC)cc6n5)CC4)c3)C2)ccc1=O [Compound I-33] | > 10 µM | 1 to 10 µM
8 | CCOC(=O)Cn1cc(NC(=O)[C@H]2CCCN(c3cncc(N4CCC(CN(C)C[C@H]5CC[C@H](n6cc(NC(=O)c7cnn8ccc(N9C[C@H]%10C[C@@H]9CO%10)nc78)c(C(F)F)n6)CC5)CC4)c3)C2)ccc1=O [Compound I-34] | > 10 µM | > 10 µM
9 | CCOC(=O)Cn1cc(NC(=O)[C@H]2CCCN(c3cncc(CCNC[C@H]4CC[C@H](n5cc(NC(=O)c6cnn7ccc(N8C[C@H]9C[C@@H]8CO9)nc67)c(C(F)F)n5)CC4)c3)C2)ccc1=O [Compound I-36] | > 10 µM | 1 to 10 µM
10 | O=C(O)Cn1cc(NC(=O)[C@H]2CCCN(c3cncc(OCCOCCOCCOCCOCCNC[C@H]4CC[C@H](n5cc(NC(=O)c6cnn7ccc(N8C[C@H]9C[C@@H]8CO9)nc67)c(C(F)F)n5)CC4)c3)C2)ccc1=O [Compound I-37] | > 10 µM | 1 to 10 µM
11 | COc1cc2nn([C@H]3CC[C@H](CNCCOCCOCCOCCOCCOc4cncc(N5CCC[C@H](C(=O)Nc6ccc(=O)n(CC(=O)O)c6)C5)c4)CC3)cc2cc1NC(=O)c1cccc(C(F)(F)F)n1 [Compound I-38] | > 10 µM | 1 to 10 µM
12 | COc1cc2nn([C@H]3CC[C@H](CNCCOCCOCCOc4cncc(N5CCC[C@H](C(=O)Nc6ccc(=O)n(CC(=O)O)c6)C5)c4)CC3)cc2cc1NC(=O)c1cccc(C(F)(F)F)n1 [Compound I-40] | > 10 µM | > 10 µM
13 | CCOC(=O)Cn1cc(NC(=O)[C@H]2CCCN(c3cncc(OCCOCCOCCNC[C@H]4CC[C@H](n5cc6cc(NC(=O)c7cccc(C(F)(F)F)n7)c(OC)cc6n5)CC4)c3)C2)ccc1=O [Compound I-41] | > 10 µM | > 10 µM
14 | CCOC(=O)Cn1cc(NC(=O)[C@H]2CCCN(c3cncc(OCCOCCOCCOCCOCCNC[C@H]4CC[C@H](n5cc6cc(NC(=O)c7cccc(C(F)(F)F)c7)c(OC)cc6n5)CC4)c3)C2)ccc1=O [Compound I-43] | > 10 µM | 1 to 10 µM
15 | O=C(O)Cn1cc(NC(=O)[C@H]2CCCN(c3cncc(OCCOCCOCCNC[C@H]4CC[C@H](n5cc(NC(=O)c6cnn7ccc(N8C[C@H]9C[C@@H]8CO9)nc67)c(C(F)F)n5)CC4)c3)C2)ccc1=O [Compound I-44] | > 10 µM | > 10 µM
16 | CCOC(=O)Cn1cc(NC(=O)[C@H]2CCCN(c3cncc(OCCOCCOCCOCCOCCNC[C@H]4CC[C@H](n5cc(NC(=O)c6cnn7ccc(N8C[C@H]9C[C@@H]8CO9)nc67)c(C(F)F)n5)CC4)c3)C2)ccc1=O [Compound I-47] | > 10 µM | > 10 µM
17 | CCOC(=O)Cn1cc(NC(=O)[C@H]2CCCN(c3cncc(OCCNC[C@H]4CC[C@H](n5cc(NC(=O)c6cnn7ccc(N8C[C@H]9C[C@@H]8CO9)nc67)c(C(F)F)n5)CC4)c3)C2)ccc1=O [Compound I-48] | > 10 µM | 1 to 10 µM

Results, then the compound that gave them:

Row | DC50 (IRAK4 [1]) | DC50 (IRAK4 [2]) | SMILES
18 | > 10 µM | 0.1 to 1 µM | COc1cc2nn([C@H]3CC[C@H](CNCCCCCCc4cncc(N5CCC[C@H](C(=O)Nc6ccc(=O)n(CC(=O)O)c6)C5)c4)CC3)cc2cc1NC(=O)c1cccc(C(F)(F)F)n1 [Compound I-24]
19 | > 10 µM | > 10 µM | COc1cc2nn([C@H]3CC[C@H](CNCCOc4cncc(N5CCC[C@H](C(=O)Nc6ccc(=O)n(CC(=O)O)c6)C5)c4)CC3)cc2cc1NC(=O)c1cccc(C(F)(F)F)n1 [Compound I-29]
20 | > 10 µM | < 0.1 µM | CCOC(=O)Cn1cc(NC(=O)[C@H]2CCCN(c3cncc(CCCCCCNC[C@H]4CC[C@H](n5cc6cc(NC(=O)c7cccc(C(F)(F)F)n7)c(OC)cc6n5)CC4)c3)C2)ccc1=O [Compound I-42]
21 | > 10 µM | 1 to 10 µM | CCOC(=O)Cn1cc(NC(=O)[C@H]2CCCN(c3cncc(OCCOCCOCCNC[C@H]4CC[C@H](n5cc(NC(=O)c6cnn7ccc(N8C[C@H]9C[C@@H]8CO9)nc67)c(C(F)F)n5)CC4)c3)C2)ccc1=O [Compound I-45]
22 | > 10 µM | > 10 µM | O=C(O)Cn1cc(NC(=O)[C@H]2CCCN(c3cncc(OCCCCNC[C@H]4CC[C@H](n5cc(NC(=O)c6cnn7ccc(N8C[C@H]9C[C@@H]8CO9)nc67)c(C(F)F)n5)CC4)c3)C2)ccc1=O [Compound I-46]
23 | 0.1 to 1 µM | 0.1 to 1 µM | COC(=O)Cn1cc(NC(=O)c2cccc(-c3cncc(CCCCCCCCCNC[C@H]4CC[C@H](n5cc6cc(NC(=O)c7cccc(C(F)(F)F)n7)c(C(C)(C)O)cc6n5)CC4)c3)c2)ccc1=O [Compound I-49]
24 | > 10 µM | > 10 µM | CC(C)(O)c1cc2nn([C@H]3CC[C@H](CNCCCCCCCCCc4cccc5c(-c6cccc(C(=O)Nc7ccc(=O)n(CC(=O)O)c7)c6)cncc45)CC3)cc2cc1NC(=O)c1cccc(C(F)(F)F)n1 [Compound I-50]
